Measurements reported in paper PMC6367362, “MD001, a Novel Peroxisome Proliferator-activated Receptor α/γ Agonist, Improves Glucose and Lipid Metabolism” (Scientific Reports, 2019).

Legend:
[1] = system: db/db mice; assay: Oral once-daily administration to diabetic db/db mice; conditions: db/db mice; for number of large fat cells (>150 μm in diameter) / number of small fat cells (<100 μm in diameter): adipose tissue H&E; for blood glucose levels: MD001 5 or 20 mg/kg, WY14643 20 mg/kg, rosiglitazone 20 mg/kg; for diameter of the glomerular capsule: 20 mg/kg once a day for 60 days
Description: (§4) (A) Changes in blood glucose levels was monitored in db/db mice administered once a day with vehicle, WY14643 (WY, 20 mg/kg), rosiglitazone (rosi, 20 mg/kg), or MD001 (n = 5–6 per group) as indicated. […] (D–M) The change in various blood metabolites was examined in db/db mice administered once a day with vehicle, WY14643 (WY), rosiglitazone (rosi), or MD001 (n = 5–6 per group). *, **, and ^#, vs. vehicle; ^†, vs. vehicle, MD001(5 mg/kg), and MD001(20 mg/kg). The data represent the mean ± S.D. *P < 0.05, **P < 0.01, ^#P < 0.001, and ^†P < 0.01.
(§5) Six-week-old C57BLKS/J-Lepr^db/Lepr^db or wild type C57BL/6J male mice were purchased from Orient Bio, Inc. (Seongnam, Korea) and acclimatised for one week. Mice were randomly grouped and orally administered with vehicle, WY14643 (20 mg/kg), rosiglitazone (20 mg/kg), or MD001 (5 mg/kg or 20 mg/kg) once a day for two months. […] Blood glucose levels were measured at the indicated time point using an OneTouch Ultra Blood Glucose Monitoring System (LifeScan, Inc., Milpitas, CA, USA).
(§6) Livers and blood samples were collected from mice in each group.
(§7) Tissues specimens including liver, perigonadal adipose tissue, skeletal muscle, spleen, kidney, and heart, were collected from mice in each group, fixed in 10% formalin, and embedded into paraffin. Tissue sections (5 μm) were stained with haematoxylin and eosin (H&E).

[2] = system: wild type C57BL/6J mice; assay: Oral once-daily administration to wild type C57BL/6J mice; format: in vivo, mouse; conditions: wild type C57BL/6J mice
Description: Supplementary Figure S6. MD001 has no influence on food intake of mice. (A) Wild type C57/BL6 mice were orally administered with vehicle, rosiglitazone (20 mg/kg), or MD001 (20 mg/kg) once a day for 60 days. The change in their body weight was evaluated and presented as gain of body weight per group (n = 5 - 6 in each group). (B) The 3-day food intake in wild type C57/BL6 mice or db/db mice during the administration of the indicated drug was measured three times (n = 5 - 6 in each group). The data represent the mean ± SD.
C57/BL6 mice. (A-H) Wild type C57/BL6 mice were administered with vehicle, rosiglitazone (20 mg/kg), or MD001 (20 mg/kg) (n = 5 in each group) for 60 days, and their blood metabolites were measured. (B) Blood glucose level was examined during the administration of the […]

[3] = system: db/db mice; conditions: mouse, in vivo; for H&E staining of skeletal muscle: 20 mg/kg
Description: as §4, §5, §6, §7

[4] = biological target: T1, human HA-PPARγ (Homo sapiens, UniProt P37231); assay: PPRE luciferase activity assay in HEK293 cells transfected with HA-PPARγ; format: cell-based; set-up: transcriptional activity of PPARγ: dose or concentration left out as unconfirmed; conditions: HEK293, PPRE-pk-Luc; 24 h (Supplementary Fig. S2)
T1 construct: expressed in transfected cells; host or cells: HEK293
T1 sequence (P37231 1-505): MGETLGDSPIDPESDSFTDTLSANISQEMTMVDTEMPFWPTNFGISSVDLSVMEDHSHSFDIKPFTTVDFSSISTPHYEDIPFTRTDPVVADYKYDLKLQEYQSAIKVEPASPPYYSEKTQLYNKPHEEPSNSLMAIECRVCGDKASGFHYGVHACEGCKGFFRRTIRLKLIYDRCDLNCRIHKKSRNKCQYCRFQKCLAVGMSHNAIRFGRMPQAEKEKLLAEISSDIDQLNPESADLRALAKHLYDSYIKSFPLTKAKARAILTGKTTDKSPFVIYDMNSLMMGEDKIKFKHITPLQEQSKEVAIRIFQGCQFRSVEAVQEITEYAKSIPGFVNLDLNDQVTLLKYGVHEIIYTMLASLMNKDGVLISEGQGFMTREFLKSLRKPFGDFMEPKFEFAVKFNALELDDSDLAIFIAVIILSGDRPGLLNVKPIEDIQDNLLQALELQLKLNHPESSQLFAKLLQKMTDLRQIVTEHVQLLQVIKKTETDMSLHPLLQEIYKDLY
Description: (§1) Figure 2 MD001 induces the expression of target genes through PPARα and PPARγ activation. HEK293 cells were transiently co-transfected with human HA-PPARα (A) and HA-PPARγ (B) expression vectors along with the reporter plasmid (PPRE-pk-Luc) or control reporter plasmid (pk-Luc) with Renilla vector for 24 h. Cells were treated with MD001 (10 μM), rosiglitazone (rosi) (10 μM) or WY14643 (WY) (10 μM) for 24 h. Luciferase activity was normalised to Renilla luciferase activity as described in the Methods section. **, vs. vehicle. (C) HepG2 cells were treated with MD001 (10 μM) for 24 h, and total RNA was isolated and synthesised into cDNA. Relative expression was quantitated using qRT-PCR. **, vs. vehicle. (D,E) HepG2 cells were transfected with control siRNA, PPARα siRNA (D), or PPARγ siRNA (E) for 48 h and treated with vehicle, WY14643 (10 μM), rosiglitazone (10 μM) or MD001 (10 μM) for 24 h. Subsequently, cells were harvested for total RNA isolation. Relative expression of target genes was quantitated using qRT-PCR. ^#, vs. control siRNA; ^‡, vs. control siRNA/vehicle; ^§, vs. control siRNA/WY; * and **, vs. control siRNA/MD001. Data represent the mean ± SD of three independent experiments. *P < 0.05, **P < 0.01, ^#P < 0.01, ^‡P < 0.01, and ^§P < 0.01.
(§2) For transient transfection, cells were transfected with plasmid DNA constructs by polyethylenimine (PEI, Polysciences, Inc., Warrington, PA, USA) according to the manufacturer’s instructions. Transcription activity assays of PPARα and PPARγ in HEK293 cells were performed by co-transfection of HA-PPARα, HA-PPARγ, and peroxisome proliferator-response element (PPRE) reporter plasmid (PPRE-pk-Luc) or control reporter plasmid (pk-Luc) with Renilla vector for 24 h. […] Luciferase activity was measured with the Dual-Luciferase Reporter Assay System (Promega, Madison, WI, USA) and quantified using GloMax (Promega, USA) according to the manufacturer’s protocol. […]
(§3) Luciferase activity was measured as described in the Methods section. […]

[5] = biological target: T2, human HA-PPARα (Homo sapiens, UniProt Q07869); assay: PPRE luciferase activity assay in HEK293 cells transfected with HA-PPARα; format: cell-based; set-up: transcriptional activity of PPARα: dose or concentration left out as unconfirmed; conditions: HEK293, PPRE-pk-Luc; 24 h (Supplementary Fig. S2)
T2 construct: expressed in transfected cells; host or cells: HEK293
T2 sequence (Q07869 1-468): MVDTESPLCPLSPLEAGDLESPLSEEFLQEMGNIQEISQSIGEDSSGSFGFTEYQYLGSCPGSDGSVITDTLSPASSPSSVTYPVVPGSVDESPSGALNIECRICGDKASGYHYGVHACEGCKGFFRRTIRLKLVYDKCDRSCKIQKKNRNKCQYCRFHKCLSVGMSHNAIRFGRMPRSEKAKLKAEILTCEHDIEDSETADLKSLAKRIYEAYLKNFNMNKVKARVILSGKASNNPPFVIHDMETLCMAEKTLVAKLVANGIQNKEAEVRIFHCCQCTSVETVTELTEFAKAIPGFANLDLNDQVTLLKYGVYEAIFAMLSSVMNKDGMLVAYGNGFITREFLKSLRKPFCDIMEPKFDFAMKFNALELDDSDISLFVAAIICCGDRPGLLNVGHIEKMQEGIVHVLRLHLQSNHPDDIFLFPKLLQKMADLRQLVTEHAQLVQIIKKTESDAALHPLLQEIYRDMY
Description: as §1, §2, §3

food ingestion [3] | H&E staining of skeletal muscle [3] | melting point | transcriptional activity of PPARγ [4] | transcriptional activity of PPARα [5] | H&E staining of adipose tissue, skeletal muscle, and liver ([2]; 20 mg/kg once a day for 60 days) | Structure (SMILES) | number of large fat cells (>150 μm in diameter) [1] | number of small fat cells (<100 μm in diameter) [1] | blood FFA ([1]; oral once a day) | blood TG ([1]; oral once a day) | blood glucose levels ([1]; oral once a day) | diameter of the glomerular capsule [1] | body weight gain ([2]; once a day for 60 days) | blood alanine aminotransferase (ALT) levels ([1]; oral once a day) | blood aspartate aminotransferase (AST) levels ([1]; oral once a day) | hepatic TG ([1]; 20 mg/kg) | hepatic steatosis (H&E staining of liver) ([1]; 20 mg/kg)
without changes in food ingestion | no differences | – | – | – | – | Cc1cccc(Nc2cc(Cl)nc(SCC(=O)O)n2)c1C [WY14643, reference compound] | significantly reduced | significantly increased | significantly decreased | significantly decreased | significantly decreased | significantly reduced | no induction of body weight gain | – | – | – | –
– | – | 274 to 278 °C | failed to enhance | failed to enhance | – | Cc1c(O)cc2oc(=O)c(C(=O)/C=C/c3ccccc3)c(-c3ccccc3)c2c1O [MD002] | – | – | – | – | – | – | – | – | – | – | –
– | no differences | – | – | – | no differences | CN(CCOc1ccc(CC2SC(=O)NC2=O)cc1)c1ccccn1 (stereo not drawn) [rosiglitazone, reference compound] | significantly reduced | significantly increased | significantly decreased | significantly decreased | significantly decreased | significantly reduced | – | significantly increased | significantly increased | failed to reduce | exacerbated hepatic steatosis
